Data as given in PMC12508156, “Non-canonical dihydrolipoyl transacetylase promotes chemotherapy resistance via mitochondrial tetrahydrofolate signaling” (Nature Communications, 2025).
“And” between values parts separate entries of the source, which are not always exact repeats. Equal values may be shown once.

Tests used:
KB-3-1cisR cells = assay: Apoptotic cell death (annexin V/PI staining); assay type: cell-based, human
H1299 cells = assay: Apoptotic cell death (annexin V/PI staining); assay type: cell-based, human; conditions: cisplatin 5 μg/ml, 48 h, n=1-3: biological replicates
cellular ROS = assay: Cellular ROS level (CM-H2DCFDA staining); assay type: cell-based, human
Experimental: (§1) Cellular metabolic states were examined through various assays. To gauge the levels of total intracellular or mitochondrial reactive oxygen species (ROS), cells were stained with CM-H2DCFDA or mitoSOX, respectively. Intracellular H2O2, NADPH, acetyl-CoA, and GSH/GSSG ratios were quantified using commercial assay kits as listed in the Reagents. Intracellular ATP levels were determined utilizing the ATP bioluminescent somatic cell assay and normalized to the total protein concentrations. The de novo synthesized RNA and proteins were assessed in cancer cells using commercial assays following the manufacturer’s protocols. In brief, O-propargyl-puromycin or uridine analog, 5-EU, was applied to stop translation or modify RNA. Polypeptides or modified RNA were measured using fluorescent azide with Ex/Em at 494/521 nm. PDC activity was determined by measuring the reduction of NAD+ to NADH during the conversion of pyruvate into acetyl-CoA.

ATP = assay: Intracellular ATP level; assay type: cell-based, human; set-up: unit not given here
Experimental: as §1

[1] = tested on: lung cancer patient-derived xenograft tumors; assay: IHC of lung cancer PDX tumors (Ac-K44 MTHFD2, MT-CO2, DLAT); assay type: in vivo, athymic nu/nu mice; set-up: key: IHC intensity score 0 to 3+; conditions: lung cancer PDX tumors (Figure 8M)
From the text: Formalin-fixed and paraffin-embedded tumor tissue specimens from HNSCC and NSCLC patients were obtained from the […] Cancer Tissue and Pathology Shared Resources. The Institutional Review Board (IRB) of Emory University approved using human specimens (IRB00003208 - HNSCC, IRB00098377 - NSCLC). Clinical samples were collected with informed consent according to the Health Insurance Portability and Accountability Act. Patients' clinical information was obtained through the […] Technology Applications Shared Resource. Tumors from HNSCC or NSCLC patients who received chemotherapy-containing regimens were used. Immunohistochemistry (IHC) staining of DLAT, acetyl-[…] MTHFD2, MT-CO2, and Ki-67 was performed based on the established protocol. Antigen retrieval was conducted in Tris-EDTA (pH 9.0) for acetyl-[…] MTHFD2 and MT-CO2 and sodium citrate (pH 6.0) for the remaining antigens. […] Assessment of positive DLAT, MT-CO2, and acetyl-[…] MTHFD2 staining intensity within tumor cells was performed using a scoring system ranging from 0 to 3+ based on IHC signal intensity. Mice were subcutaneously injected into the flank with 1 × 10^6 KB-3-1^cisR cells with or without DLAT knockdown. […] Tumors were collected at the experimental endpoint, and tumor proliferation was assessed using Ki-67 IHC staining. The localization, penetration, and efficacy of DMp39 were monitored by assessing the acetyl-[…] levels in tumors and fluorescence imaging analysis using an IVIS imaging system. Drug-induced organ toxicities, including splenomegaly, liver damage, and kidney injury, were monitored by assessing spleen index, alanine transaminase activity, and cystatin C levels in plasma.

KB-3-1 cells = conditions: read-out: cisplatin IC50; parental KB-3-1 cells; cited from earlier work
From the text: The RNAi library contains 328 shRNA clones, and each gene was targeted by 2 ~ 8 clones (Fig. 1a). Eleven genes, including DLAT, were selected as unexplored lead hits with cisplatin-sensitizing potential and were further evaluated in A549^cisR, H1299, and KB-3-1^cisR, and two acetyltrans ...

GSH/GSSG = GSH/GSSG ratio (GSH/GSSG-Glo); assay type: cell-based, human
[2] = A549cisR, CTL, sheet Figure 5G, replicate n=1
[3] = A549cisR, CTL, sheet Figure 5G, replicate n=2
[4] = A549cisR, CTL, sheet Figure 5G, replicate n=3
[5] = KB-3-1cisR, CTL, sheet Figure 5G, replicate n=1
[6] = KB-3-1cisR, CTL, sheet Figure 5G, replicate n=2
[7] = KB-3-1cisR, CTL, sheet Figure 5G, replicate n=3
[8] = KB-3-1cisR, shDLAT+Flag-MTHFD2 (K44Q), sheet Figure 5G, replicate n=1
[9] = KB-3-1cisR, shDLAT+Flag-MTHFD2 (K44Q), sheet Figure 5G, replicate n=2

In the case of `N.N.[Cl][Pt][Cl]` [cisplatin], the Apoptotic death (KB-3-1cisR cells; KB-3-1cisR pLKO.1+pLHCX, cisplatin 5 μg/ml, 48 h, n=1-4: biological replicates, listed as cis) is reported as 8.39 and 8.75 and 8.86 and 8.83, the Apoptotic death (KB-3-1cisR cells; KB-3-1cisR shDLAT+DLAT(WT) rescue, cisplatin 5 μg/ml, 48 h, n=1-4: biological replicates, listed as cis) is reported as 6.91 and 7.48 and 7.23 and the Apoptotic death (KB-3-1cisR cells; KB-3-1cisR, KQ, sheet Figure 6E, replicate n=3) is reported as 10. The Apoptotic death (KB-3-1cisR cells; KB-3-1cisR, shDLAT, sheet Figure 5F, replicate n=1) was 63.6, the Apoptotic death (KB-3-1cisR cells; KB-3-1cisR, shDLAT, sheet Figure 5F, replicate n=2) was 64.3 and the Apoptotic death (H1299 cells; H1299 pLKO.1) was 12.41. The Apoptotic death (H1299 cells; H1299 shDLAT #1) was 23.45 and 22.74, the Apoptotic death (H1299 cells; H1299 shDLAT #2) was 18.43 and the ROS level (cellular ROS; A549cisR cells, pLKO.1, n=1) was 0.9837. The ROS level (cellular ROS; A549cisR cells, pLKO.1, n=2) was 1.0031, the ROS level (cellular ROS; A549cisR cells, pLKO.1, n=3) was 1.0132 and the ROS level (cellular ROS; [2]) was 1.052. For the same molecule, the ROS level (cellular ROS; [3]) was 0.9938, the ROS level (cellular ROS; [4]) was 0.9539 and the ROS level (cellular ROS; KB-3-1cisR cells, pLKO.1, n=1) was 1.037. The ROS level (cellular ROS; KB-3-1cisR cells, pLKO.1, n=2) was 0.9651, the ROS level (cellular ROS; KB-3-1cisR cells, pLKO.1, n=3) was 0.9984 and the ROS level (cellular ROS; KB-3-1cisR cells, shDLAT, n=1) was 2.065. For the same molecule, the ROS level (cellular ROS; KB-3-1cisR cells, shDLAT, n=2) was 2.047, the ROS level (cellular ROS; [5]) was 0.9879 and the ROS level (cellular ROS; [6]) was 1.001. For the same molecule, the ROS level (cellular ROS; [7]) was 1.011, the ROS level (cellular ROS; [8]) was 1.351 and the ROS level (cellular ROS; [9]) was 1.32. The ATP level (ATP; A549cisR, pLKO.1, n=1 (Figure 3B)) was 1.319, the ATP level (ATP; A549cisR, pLKO.1, n=2 (Figure 3B)) was 1.28 and the ATP level (ATP; A549cisR, pLKO.1, n=3 (Figure 3B)) was 1.1923. The ATP level (ATP; A549cisR, shDLAT, n=1 (Figure 3B)) was 1.405, the ATP level (ATP; A549cisR, shDLAT, n=2 (Figure 3B)) was 1.318 and the ATP level (ATP; A549cisR, shDLAT, n=3 (Figure 3B)) was 1.292. It also gave an ATP level (ATP; KB-3-1cisR, pLKO.1, n=1 (Figure 3B)) of 1.593, an ATP level (ATP; KB-3-1cisR, pLKO.1, n=2 (Figure 3B)) of 1.725 and an ATP level (ATP; KB-3-1cisR, pLKO.1, n=3 (Figure 3B)) of 1.722. For the same molecule, the ATP level (ATP; KB-3-1cisR, shDLAT, n=1 (Figure 3B)) was 1.707, the ATP level (ATP; KB-3-1cisR, shDLAT, n=2 (Figure 3B)) was 1.7048 and the ATP level (ATP; KB-3-1cisR, shDLAT, n=3 (Figure 3B)) was 1.693. For the same molecule, the “Ac-K44 (IHC score)” value ([1]; n=1) was 2, the “DLAT (IHC score)” value ([1]; n=1) was 1 and the “MT-CO2 (IHC score)” value ([1]; n=1) was 3. The “Ac-K44 (IHC score)” value ([1]; n=2) was 2, the “DLAT (IHC score)” value ([1]; n=2) was 2 and the “MT-CO2 (IHC score)” value ([1]; n=2) was 3. For the same molecule, the “Ac-K44 (IHC score)” value ([1]; n=3) was 3, the “DLAT (IHC score)” value ([1]; n=3) was 3 and the “MT-CO2 (IHC score)” value ([1]; n=3) was 3. For the same molecule, the “Ac-K44 (IHC score)” value ([1]; n=4) was 3, the “DLAT (IHC score)” value ([1]; n=4) was 2 and the “MT-CO2 (IHC score)” value ([1]; n=4) was 2. The “Ac-K44 (IHC score)” value ([1]; n=5) was 2, the “DLAT (IHC score)” value ([1]; n=5) was 2 and the “MT-CO2 (IHC score)” value ([1]; n=5) was 3. For the same molecule, the IC50 (KB-3-1 cells) was 8.4 µM, the GSH/GSSG (GSH/GSSG; A549cisR cells, pLKO.1, n=1) was 18.3651 and the GSH/GSSG (GSH/GSSG; A549cisR cells, pLKO.1, n=3) was 19.3614. The GSH/GSSG (GSH/GSSG; A549cisR cells, pLKO.1, n=4) was 18.0395, the GSH/GSSG (GSH/GSSG; A549cisR cells, shDLAT, n=1) was 8.402 and the GSH/GSSG (GSH/GSSG; A549cisR cells, shDLAT, n=2) was 8.901. For the same molecule, the GSH/GSSG (GSH/GSSG; A549cisR cells, shDLAT, n=4) was 10.9995, the GSH/GSSG (GSH/GSSG; [2]) was 25.1517 and the GSH/GSSG (GSH/GSSG; [3]) was 26.0996. It also gave a GSH/GSSG (GSH/GSSG; [4]) of 23.5884, a GSH/GSSG (GSH/GSSG; A549cisR, shDLAT+Flag-MTHFD2 (K44Q), sheet Figure 5G, replicate n=1) of 31.9457 and a GSH/GSSG (GSH/GSSG; A549cisR, shDLAT+Flag-MTHFD2 (K44Q), sheet Figure 5G, replicate n=2) of 29.1783. For the same molecule, the GSH/GSSG (GSH/GSSG; A549cisR, shDLAT+Flag-MTHFD2 (K44Q), sheet Figure 5G, replicate n=3) was 30.4077, the GSH/GSSG (GSH/GSSG; A549cisR, shDLAT+Flag-MTHFD2 (K44R), sheet Figure 5G, replicate n=1) was 8.894 and the GSH/GSSG (GSH/GSSG; A549cisR, shDLAT+Flag-MTHFD2 (K44R), sheet Figure 5G, replicate n=2) was 10.2513. It also gave a GSH/GSSG (GSH/GSSG; A549cisR, shDLAT+Flag-MTHFD2 (K44R), sheet Figure 5G, replicate n=3) of 9.633, a GSH/GSSG (GSH/GSSG; A549cisR, shDLAT, sheet Figure 5G, replicate n=1) of 8.501 and a GSH/GSSG (GSH/GSSG; A549cisR, shDLAT, sheet Figure 5G, replicate n=2) of 9.861. It also gave a GSH/GSSG (GSH/GSSG; A549cisR, shDLAT, sheet Figure 5G, replicate n=3) of 10.404, a GSH/GSSG (GSH/GSSG; KB-3-1cisR cells, pLKO.1, n=1) of 14.1658 and a GSH/GSSG (GSH/GSSG; KB-3-1cisR cells, pLKO.1, n=2) of 13.5059. The GSH/GSSG (GSH/GSSG; KB-3-1cisR cells, pLKO.1, n=3) was 14.1711, the GSH/GSSG (GSH/GSSG; KB-3-1cisR cells, pLKO.1, n=4) was 12.6758 and the GSH/GSSG (GSH/GSSG; KB-3-1cisR cells, shDLAT, n=3) was 6.177. The GSH/GSSG (GSH/GSSG; KB-3-1cisR cells, shDLAT, n=4) was 6.252, the GSH/GSSG (GSH/GSSG; [5]) was 15.3805 and the GSH/GSSG (GSH/GSSG; [6]) was 14.4145. For the same molecule, the GSH/GSSG (GSH/GSSG; [7]) was 16.7699, the GSH/GSSG (GSH/GSSG; [8]) was 25.3381 and the GSH/GSSG (GSH/GSSG; [9]) was 26.6695. For the same molecule, the GSH/GSSG (GSH/GSSG; KB-3-1cisR, shDLAT+Flag-MTHFD2 (K44Q), sheet Figure 5G, replicate n=3) was 26.7501, the GSH/GSSG (GSH/GSSG; KB-3-1cisR, shDLAT+Flag-MTHFD2 (K44R), sheet Figure 5G, replicate n=1) was 6.376 and the GSH/GSSG (GSH/GSSG; KB-3-1cisR, shDLAT+Flag-MTHFD2 (K44R), sheet Figure 5G, replicate n=2) was 6.273. For the same molecule, the GSH/GSSG (GSH/GSSG; KB-3-1cisR, shDLAT+Flag-MTHFD2 (K44R), sheet Figure 5G, replicate n=3) was 6.832, the GSH/GSSG (GSH/GSSG; KB-3-1cisR, shDLAT, sheet Figure 5G, replicate n=1) was 7.027 and the GSH/GSSG (GSH/GSSG; KB-3-1cisR, shDLAT, sheet Figure 5G, replicate n=2) was 6.914. The GSH/GSSG (GSH/GSSG; KB-3-1cisR, shDLAT, sheet Figure 5G, replicate n=3) was 7.456.
